Tests used:
[1] = Example 4: body weight, food and water intake, side effects in normal and OA-dosed rats; format: in vivo, Sprague-Dawley rats
Method: Materials and Methods. To produce hyperuricemia, rats received OA (Sigma, St Louis Mo., USA) 750 mg/kg body weight daily by gastric gavage. To investigate the treatment effect of febuxostat (also referred to herein as “Fx”), the drug was administered in drinking water at 50 mg/L (approximately 5-6 mg/kg/day) four weeks after OA dosing while the respective controls received 5.84 mg/L of NaCl in drinking water (to maintain a salt concentration equivalent to the Febuxostat-containing water). The following four groups (n=10-11) were included in the study: Group 1, normal control rats which received no treatment for eight weeks; Group 2, Normal+Febuxostat rats which received no treatment for four weeks and then were treated with febuxostat for four weeks from Weeks 5 to 8; Group 3, OA rats which received OA for eight weeks; and Group 4, OA+Febuxostat rats which received OA for eight weeks and febuxostat for four weeks from Weeks 5 to 8. Body weight, food and water intakes were measured daily. Systolic blood pressure, obtained in conscious rats by a tail cuff sphygmomanometer, and plasma uric acid were measured in all animals at baseline and at the end of four and eight weeks. A renal micropuncture procedure along with systemic arterial blood pressure monitoring under pentobarbital anesthesia were performed at the end of eight weeks followed by morphologic evaluation of the renal preglomerular microvasculature.
Evaluation. Food and water intake were determined daily. Systolic blood pressure (hereinafter “SBP”) was measured in conscious animals by a tail cuff sphygmomanometer using an automated system (XBP-100, Kent Scientific Co, USA). All animals were preconditioned for blood pressure measurements one week before each experiment. Plasma UA, insulin and triglycerides were quantified using commercial kits (Diagnostic Chemicals Ltd, USA; Crystalchem, USA and Spinreact, Spain, respectively).
Statistical Analysis. Values were expressed as mean±standard error of the mean (hereinafter “SEM”). In the study, values from the respective four treatment groups were analyzed by one-way analysis of variance (hereinafter “ANOVA”). When the ANOVA p value was <0.05, the following comparisons were made using Bonferroni multiple comparison test: Normal Control vs. Normal+Fx, Normal Control vs. OA, Normal Control vs. OA+Fx and OA vs. OA+Fx. Pair wise comparisons were performed using contrast within the framework of the statistical model.

[2] = system: subjects having a systolic BP≧160 mmHg or diastolic BP≧95 mmHg (elevated blood pressure); assay: Example 3: blood pressure change in subjects with elevated blood pressure, none taking angiotensin antagonists (two double-blind studies); format: in vivo, human
Method: None of these subjects were taking any angiotensin antagonists, but might have been taking some other type of antihypertensive drug at the baseline (start) of the study. These 187 subjects were part of two (2) DB studies. One study was of 28 weeks in duration during which subjects received 80 mg, 120 mg or 240 mg QD of febuxostat or placebo or allopurinol 300 or 100 mg QD, depending on the subject's renal function. The second study was of 52 weeks in duration during which subjects received 80 mg or 120 mg QD of febuxostat or allopurinol 300 mg QD. Of these 187 subjects, all completed 4 weeks of treatment and 132 completed 28 weeks of treatment. A total of 52 weeks of treatment was completed by 15 subjects in the febuxostat 80 mg QD group, 11 in the febuxostat 120 mg QD group and 22 in the allopurinol 300/100 mg QD group. Because of the shorter duration of one of the 2 DB studies, no subject in the placebo and febuxostat 240 mg QD groups were treated for 52 weeks.

[3] = Normal + Fx rats, End of Week 4 (before Fx)
[4] = Normal + Fx rats, End of Week 8
[5] = Normal + Fx rats, Week 1 (before Fx)
[6] = Normal + Fx rats, Week 4 (before Fx)
[7] = OA + Fx rats, End of Week 4 (before Fx)
[8] = OA + Fx rats, Week 1 (before Fx)
[9] = OA + Fx rats, Week 4 (before Fx)
[10] = 80 mg QD, after 4 weeks of treatment
[11] = 80 mg QD, after 28 weeks of treatment
[12] = 80 mg QD, after 52 weeks of treatment
[13] = 120 mg QD, after 4 weeks of treatment
[14] = 120 mg QD, after 28 weeks of treatment
[15] = 120 mg QD, after 52 weeks of treatment
[16] = 240 mg QD, after 4 weeks of treatment
[17] = 240 mg QD, after 28 weeks of treatment

In the case of `Cc1nc(-c2ccc(OCC(C)C)c(C#N)c2)sc1C(=O)O` [febuxostat, 2-[3-cyano-4-(2-methylpropoxy)phenyl]-4-methylthiazole-5-carboxylic acid], the BW ([1]; Normal + Fx rats, Baseline (Fx 50 mg/L in drinking water Weeks 5 to 8), mean ± SEM) is reported as 319.9 ± 3.0 gr, the “% BW gain from baseline” value [1, 3] is reported as 11.9 ± 1.8% and the BW [1, 3] is reported as 359.3 ± 7.2 gr. The “% BW gain from Week 4” value [1, 4] was 6.6 ± 0.8 %, the “% BW gain from baseline” value [1, 4] was 18.7 ± 1.8% and the BW [1, 4] was 377.7 ± 7.5 gr. For the same compound, the “Daily Food intake” value [1, 5] was 18.3 ± 0.6 gr, the “Daily Water intake” value [1, 5] was 34.5 ± 2.4 mL and the “Daily Food intake” value [1, 6] was 16.0 ± 0.7 gr. The “Daily Water intake” value [1, 6] was 32.3 ± 1.4 mL, the “Daily Food intake” value ([1]; Normal + Fx rats, Week 8) was 18.0 ± 0.4 gr and the “Daily Water intake” value ([1]; Normal + Fx rats, Week 8) was 39.7 ± 1.7 mL. The BW ([1]; OA + Fx rats, Baseline (Fx 50 mg/L in drinking water Weeks 5 to 8), mean ± SEM) was 323.6 ± 3.2 gr, the “% BW gain from baseline” value [1, 7] was 6.7 ± 1.7% and the BW [1, 7] was 345.3 ± 5.7 gr. The “% BW gain from Week 4” value ([1]; OA + Fx rats, End of Week 8) was 5.2 ± 0.7 %, the “% BW gain from baseline” value ([1]; OA + Fx rats, End of Week 8) was 12.3 ± 1.9% and the BW ([1]; OA + Fx rats, End of Week 8) was 363.2 ± 5.7 gr. For the same compound, the “Daily Food intake” value [1, 8] was 15.1 ± 0.7 gr, the “Daily Water intake” value [1, 8] was 36.6 ± 2.2 mL and the “Daily Food intake” value [1, 9] was 17.4 ± 0.7 gr. For the same compound, the “Daily Water intake” value [1, 9] was 33.8 ± 2.4 mL, the “Daily Food intake” value ([1]; OA + Fx rats, Week 8) was 18.6 ± 0.4 gr and the “Daily Water intake” value ([1]; OA + Fx rats, Week 8) was 42.6 ± 2.3 mL. The “behaviour and side effects” value ([1]; all rats, eight-week study) was “no side effects were observed”, the “mean change from baseline for diastolic BP” value [2, 10] was −3.1 mmHg and the “mean change from baseline for mean arterial BP” value [2, 10] was −4.3 mmHg. For the same compound, the “mean change from baseline for systolic BP” value [2, 10] was −6.7 mmHg, the “mean change from baseline for diastolic BP” value [2, 11] was −7.3 mmHg and the “mean change from baseline for mean arterial BP” value [2, 11] was −9.0 mmHg. The “mean change from baseline for systolic BP” value [2, 11] was −12.6 mmHg, the “mean change from baseline for diastolic BP” value [2, 12] was −8.4 mmHg and the “mean change from baseline for mean arterial BP” value [2, 12] was −11.6 mmHg. For the same compound, the “mean change from baseline for systolic BP” value [2, 12] was −17.9 mmHg, the “mean change from baseline for diastolic BP” value [2, 13] was −7.5 mmHg and the “mean change from baseline for mean arterial BP” value [2, 13] was −7.8 mmHg. For the same compound, the “mean change from baseline for systolic BP” value [2, 13] was −8.5 mmHg, the “mean change from baseline for diastolic BP” value [2, 14] was −8.5 mmHg and the “mean change from baseline for mean arterial BP” value [2, 14] was −9.9 mmHg. For the same compound, the “mean change from baseline for systolic BP” value [2, 14] was −12.8 mmHg, the “mean change from baseline for diastolic BP” value [2, 15] was −7.4 mmHg and the “mean change from baseline for mean arterial BP” value [2, 15] was −11.1 mmHg. For the same compound, the “mean change from baseline for systolic BP” value [2, 15] was −18.6 mmHg, the “mean change from baseline for diastolic BP” value [2, 16] was −9.1 mmHg and the “mean change from baseline for mean arterial BP” value [2, 16] was −9.8 mmHg. For the same compound, the “mean change from baseline for systolic BP” value [2, 16] was −11.3 mmHg, the “mean change from baseline for diastolic BP” value [2, 17] was −4.9 mmHg and the “mean change from baseline for mean arterial BP” value [2, 17] was −6.3 mmHg. The “mean change from baseline for systolic BP” value [2, 17] was −9.2 mmHg.

Reference: US20140329868A1, “METHODS FOR TREATING HYPERTENSION” (TAKEDA PHARMACEUTICALS U.S.A., INC., priority 2005, published 2014)
